According to patent US20260217701A1, “SELECTIVE BET INHIBITORS AND USES THEREOF” (Tay Therapeutics Limited, priority 2022, published 2026):
pEC50, pIC50: −log10 of the molar value. Where two headings read alike, the source gives them in different places.

Assays:
CXCL10 = CXCL10 release from IFN-γ stimulated human PBMCs (ELISA); assay type: cell-based; conditions: for pIC50: Homo sapiens, PBMC
Method: To analyze the selectivity of Compound A for CXCL10, human PBMCs were similarly thawed, and compounds were similarly prepared (final compound concentration ranged from 30,000 nM to 0.005 nM, with a final DMSO concentration per well of 0.3%). PBMCs were seeded into 96-well plates at a concentration of 2×10^5 cells/well (volume of 190 μL) and treated with various concentrations of Compound A for 1 hour. The PBMCs were then stimulated with IFN-γ (15 ng/ml final concentration in a volume of 10 μL), and supernatants were collected 24 hours after the exposure to IFN-γ. Levels of CXCL10 in the supernatant were then analyzed by ELISA (Invitrogen).

BRD4 BD1 = biological target: T1, BRD4 BD1 (Homo sapiens, UniProt O60885); experiment: NanoBRET bromodomain assay, NanoLuc-BRD4-BD1 in HEK293 cells; assay type: binding
T1 construct: HEK293 cells were transfected using NanoLuc-BRD4-BD1 or NanoLuc-BRD4-BD2 fusion vectors

Cn1cc(-c2ccccc2)c(-c2cn(C)c(=O)c3[nH]c(-c4cnn(C(F)(F)F)c4)cc23)cc1=O [Compound A, 6-methyl-4-(1-methyl-2-oxo-5-phenyl-1,2-dihydropyridin-4-yl)-2-(1-(trifluoromethyl)-1H-pyrazol-4-yl)-1,6-dihydro-7H-pyrrolo[2,3-c]pyridin-7-one]
Percent Inhibition Relative to Control (CXCL10) (CXCL10; Compound Conc. 10 μM, Donors 1-6 two values each, Donors 7-10 three values each): 101.41%
pIC50 (CXCL10; Average preliminary biomarker assay, read-out: CXCL10 IC50 Mean): 6.00
pIC50 (CXCL10; Preliminary biomarker assay, Test Subject 1, read-out: CXCL 10 IC50): 6.00
pIC50 (CXCL10; ELISA, read-out: Selectivity (IC50) CXCL10): 5.44
inhibition of CXCL10 (CXCL10; human PBMCs, IFN-γ, 24 hours): minimal inhibition
EC50 (BRD4 BD1; previously determined, reference level for rat plasma concentrations (FIG. 4D), read-out: free EC50 BD1 (converted)): 182 µM
pEC50 (BRD4 BD1; reference level for dog plasma concentrations (Dog PK study #4), read-out: free EC50 BD1 BRD4): 3.86
